Results as given in US20230293403A1, “Compositions Comprising Lipophilic Compounds and One or More (Bio)-Alkanediols” (Symrise AG, priority 2020, published 2023).

Key:
[1] = Solubility of different alkanediols or mixtures thereof in sunflower oil (Example 1); assay type: physicochemical
Method: Each 15 g 1,2-pentanediol, 1,2-hexanediol, 1,2-heptanediol or 1,2-octanediol were dissolved in 85 g sunflower oil. Each 15 g of a mixture of 1,2-octanediol and 2,3-octanediol (95:5) or 1,2-heptanediol and 2,3-heptanediol (95:5) were dissolved in 85 g sunflower oil.

[2] = test system: skin (backside of hand) of untrained panelists; assay: Sensory evaluation by untrained panelists: heptanediols, octanediols and their mixtures blended 85:15 with liquid lipophilic components (Example 4, Table 22); design: species or system human; details: in vivo
Method: Test procedure: • Hands were pre-washed with liquid soap by following a defined procedure; • 30 μl of corresponding sample was applied on the backside of each hand (randomized); • After 30 s the spreading behaviour of the respective formulation on skin was evaluated versus the respective oil component without 1,2-heptanediol on a scale from 1 to 5 (1=low spreading; 5=high spreading); • The samples were distributed with the fingertips of middle and forefinger with 2×5 cycles; • After 2 minutes, the fatty/greasy skin feel was evaluated on a scale from 1 to 5 (1=low fatty/greasy skin feel; 5=high fatty/greasy skin feel); • Furthermore the applicants were asked to assess the absorption, i.e. the impression of amount of remaining residue on the skin on a scale from 1 to 5 (1=low absorption; 5=high absorption).
For evaluating the sensory behaviour, liquid lipophilic components specified in the following Table 22 were blended with 1,2-heptanediol or 2,3-heptanediol or a mixture of 1,2-heptanediol and 2,3-heptanediol or 1,2-octanediol or 2,3-octanediol or a mixture of 1,2-octanediol and 2,3-octanediol (formulation) in a ratio of 85:15 and assessed by untrained panelists in comparison to the liquid lipophilic component without addition of the specified alkanediols (placebo).
The test procedure was carried out in the same manner as described in Example 2.

[3] = Maximum solubility of alkanediols in water, visual assessment (Example 6); details: assessed visually at ambient temperature after 24 h storage at 5° C.; clear mixture = dissolved
Excerpt: For the determination of the maximum water solubility of an alkanediol, water and different concentrations of the respective alkanediol were blended by stirring. […] The determination of whether the alkanediol has dissolved in water is based entirely on visual observation.

Row | SMILES | solubility in sunflower oil [1] | improvement in spreading of liquid lipophilic components with poor spreading by nature [2] | Maximum solubility in water [3] [% by weight]
1 | CCCCCC(O)CO (stereo not drawn) [1,2-heptanediol] | better solubility | perform best | 2.5
2 | CCCCCCCC(O)CO (stereo not drawn) [1,2-nonanediol] | – | – | 0.1
3 | CCCCCCC(O)CO (stereo not drawn) [1,2-octanediol] | tends to precipitate or recrystallize | – | –
4 | CCCCC(O)C(C)O (stereo not drawn) [2,3-heptanediol] | – | – | 3.6
5 | CCCCCCC(O)C(C)O (stereo not drawn) [2,3-nonanediol] | – | – | 0.3
6 | CCCCCC(O)C(C)O (stereo not drawn) [2,3-octanediol] | – | – | 1.5
7 | CCCCCCC(O)CO (stereo not drawn) [Hydrolite ® 8, Caprylyl Glycol] | – | – | 0.5
